Reference: PMC6804113, “Cyclic Peptides Acting as Allosteric Inhibitors of Human Thymidylate Synthase and Cancer Cell Growth” (Molecules, 2019)
“And” between values parts separate entries of the source, which are not always exact repeats. Identical values can stand only once. “Also recorded” adds a separate entry of the source. Like-named read-outs stand apart in the source and are kept apart here. Starred links: 1 amine or outer side, 2 acyl side, 3 side chain; linkers in the order of their positions; H or OH if unused. Positions of bridges follow the written chain, without caps; N, C: chain ends. Residues, ends and D or L forms follow the SMILES beside them. No end group written: not given here. Cysteamide = C(CS[*:3])N[*:1]

Assays:
[1] = biological target: T1, recombinant human thymidylate synthase (hTS) (Homo sapiens, UniProt P04818); test: hTS inhibition assay (spectrophotometric, absorbance at 340 nm); format: biochemical; conditions: for % inhibition of hTS / inhibition at 500 µM: at 500 µM and r.t.
T1 construct: made in house
Experimental: hTS was purified as previously reported. The enzyme solution was thawed the day of the experiment and the enzyme concentration was determined by UV−Vis spectroscopy (Varian Cary 100, Agilent, Santa Clara, CA, USA) using ε280 = 89000 M^−1 cm^−1 and Mr = 74 229. The thawed protein solution was kept constantly at 4 °C. In this condition, the enzyme was able to reproduce normal kinetic activity values (KM dUMP = 10−12 μM, KM mTHF = 4−6 μM, kcat = 0.8−0.9 s^−1). The peptide solution was mixed or vortexed in order to help solubilization; the precise concentration was determined through UV−Vis spectroscopy. A stock solution of mTHF was prepared in carbonate buffer. The stock was prepared in the range of 5 to 6 mM. A stock solution of dUMP was prepared in bidistilled water in the range of 10−12 mM. Peptide inhibitors were tested without incubation with hTS in […], at 25 °C. A 1 mL amount of assay buffer consisted of 50 mM TES, pH 7.4, containing 25 mM MgCl2, 6.5 mM HCHO, 1 mM EDTA, 75 mM β-mercaptoethanol (β-ME), 0.120 mM dUMP, and 0.060 mM mTHF. Following the addition of the enzyme (300 nM) and inhibitor mixture, the absorbance was monitored at 340 nm in a UV−Vis spectrophotometer for 3 min. In the control sample, an equal aliquot of enzyme alone was added. hTS activity inhibition percentages (I%) values were measured at 0.100−3000 µM concentration of inhibitor. […] The kinetic inhibition pattern was studied for compound 7 [12]. The inhibition values are expressed as mean ± SEM; n = 3.

IGROV-1 cells = test: Cytotoxicity, crystal violet cell growth assay, peptides transfected with SAINT-PhD; format: cell-based, human; conditions: at 10 and 25 µM, ranking among the 10 cPs, SAINT-PhD delivery
Experimental: (§1) The IGROV-1, A2780, and A2780/CP human ovarian cancer cell lines were grown as monolayer in RPMI 1640 medium containing 10% heat-inactivated fetal bovine serum and 50 µg/mL gentamycin sulfate (Euroclone, Devon, UK). Cultures were equilibrated with humidified 5% CO2 in air at 37 °C. The cDDP-resistant variant A2780/CP cell line, derived from the parent A2780 cell line, is about 10-fold resistant to cDDP and was developed by monthly exposure to cDDP, followed by chronic exposure to stepwise increases in cDDP concentration. All studies were performed in Mycoplasma negative cells, as routinely determined with the MycoAlert Mycoplasma detection kit (Lonza, Walkersville, MD, USA).
(§2) Treatment with each peptide was performed according to the standard transfection protocol of the SAINT-PhD delivery system (Synvolux Therapeutics, Leiden, Netherlands). Complexes of peptide (µg) with SAINT-PhD (µL) were prepared at appropriate ratios corresponding to the approximate µM concentrations indicated. For each protein sample, complexes were prepared as follows: for the treatment of a 24-well plate, the appropriate amount of each peptide was diluted in HBS, then SAINT-PhD was pipetted into the solution without vortexing; then, the mixture was incubated for 5 min at room temperature, and filled up to 500 µL with serum-free medium. The culture medium was aspirated from the cells, the SAINT-PhD/peptide complex was added to the wells and incubated 4 h (37 °C, 5% CO2). Afterward, complete RPMI was added to reach the appropriate volume for maintaining the cell culture for the duration of the experiments.
(§3) Cell growth was determined using a modified crystal violet assay. On selected days, the tissue culture medium was removed, and the cell monolayer fixed with methanol and stained with 0.2% crystal violet solution in 20% methanol for at least 30 min. After being washed several times with distilled water to remove excess dye, the cells were left to dry. The incorporated dye was solubilized in acidified isopropanol (1N HCl: 2-propanol, 1:10). After appropriate dilution, absorbance was determined spectrophotometrically at 540 nm. The extracted dye was proportional to cell biomass. The percentage of cytotoxicity was calculated by comparing the absorbance of cultures exposed to the drug to unexposed (control) cultures.

[2] = biological target: T1, recombinant human thymidylate synthase (hTS); test: hTS inhibition assay (spectrophotometric, absorbance at 340 nm); format: biochemical; conditions: for IC50: room temperature (20–22 °C) under stirring, standard error ±20% of the value; for % inhibition of hTS: at 500 µM and 37 °C under stirring
A2780/CP cells = test: Cytotoxicity, crystal violet cell growth assay, peptides transfected with SAINT-PhD; format: cell-based, human; conditions: SAINT-PhD delivery
Experimental: as §1, §2, §3

A2780 cells = test: as above; format: cell-based, human; conditions: SAINT-PhD delivery
Experimental: as §1, §2, §3

[3] = biological target: T1, recombinant human thymidylate synthase (hTS); conditions: at 100 µM; ref [20]; cited from earlier work

T1 sequence (P04818 whole entry): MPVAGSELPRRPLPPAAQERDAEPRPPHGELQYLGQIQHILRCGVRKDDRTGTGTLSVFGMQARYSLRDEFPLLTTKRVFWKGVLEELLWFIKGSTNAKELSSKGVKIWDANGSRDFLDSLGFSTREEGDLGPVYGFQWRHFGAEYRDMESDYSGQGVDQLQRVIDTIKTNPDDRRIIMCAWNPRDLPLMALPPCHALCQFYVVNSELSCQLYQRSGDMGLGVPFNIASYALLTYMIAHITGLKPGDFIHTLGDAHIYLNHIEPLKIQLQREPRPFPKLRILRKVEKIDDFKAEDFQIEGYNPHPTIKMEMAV

Compound	IC50 [2]	inhibition at 500 µM [1] [%]	cytotoxicity (in words) (IGROV-1 cells)	% inhibition of hTS [1]	% inhibition of hTS [2]	also measured
CC(C)C[C@@H]1NC(=O)[C@H](CCC(N)=O)NC(=O)[C@@H]2CCCN2C(=O)[C@@H](NC(=O)[C@@H](N)CC(C)C)CSSC[C@@H](C(=O)N[C@@H](CCC(N)=O)C(=O)N[C@@H](CCCNC(=N)N)C(=O)O)NC1=O [Peptide 6, Leu-c[Cys-Pro-Gln-Leu-Cys]-Gln-Arg] (H-LCPQLCQR-OH; disulfide 2-6)			least active; also recorded: almost non-cytotoxic	inactive	inactive	cytotoxicity (in words) (A2780/CP cells): almost non-cytotoxic; cytotoxicity (in words) (A2780 cells): almost non-cytotoxic
CC(C)C[C@@H]1NC(=O)[C@H](CCC(N)=O)NC(=O)[C@@H]2CCCN2C(=O)[C@@H](NC(=O)[C@@H](N)CC(C)C)CSSCCNC(=O)[C@H](CCCNC(=N)N)NC(=O)[C@H](CCC(N)=O)NC(=O)[C@H](Cc2ccc(O)cc2)NC1=O [Peptide 9, Leu-c[Cys-Pro-Gln-Leu-Tyr-Gln-Arg-CAM]] (H-LCPQLYQR-Cysteamide; disulfide 2-C)			intermediate cytotoxicities	inactive; also recorded: N.I. at 500 µM and r.t. N.I. at 500 µM and 37 °C under stirring	inactive; also recorded: N.I. at 500 µM and r.t. N.I. at 500 µM and 37 °C under stirring	
LSPQLYQR [[Pro^3]LR, proline mutant of LR]						% inhibition of hTS [3]: 25% at 100 µM ^c

Continued, in another order:

IC50 [2]	inhibition at 500 µM [1] [%]	Compound	cytotoxicity (in words) (IGROV-1 cells)	% inhibition of hTS [1]	% inhibition of hTS [2]	also measured
900 µM		CC(C)C[C@@H]1NC(=O)[C@H](CCC(N)=O)NC(=O)[C@H](C)NC(=O)[C@@H](NC(=O)[C@@H](N)CC(C)C)CSSC[C@@H](C(=O)O)NC(=O)[C@H](CCC(N)=O)NC(=O)[C@H](Cc2ccc(O)cc2)NC1=O [Peptide 2, Leu-c[Cys-Ala-Gln-Leu-Tyr-Gln-Cys]] (H-LCAQLYQC-OH; disulfide 2-8)	least active			inhibition at 400 µM ([1]; at 400 µM and r.t. under stirring): 36%
856 µM	38	CC(C)C[C@@H]1NC(=O)[C@H](CCC(N)=O)NC(=O)[C@@H]2CCCN2C(=O)[C@@H](NC(=O)[C@@H](N)CC(C)C)CSSC[C@@H](C(=O)O)NC(=O)[C@H](CCC(N)=O)NC(=O)[C@H](Cc2ccc(O)cc2)NC1=O [Peptide 8, Leu-c[Cys-Pro-Gln-Leu-Tyr-Gln-Cys]] (H-LCPQLYQC-OH; disulfide 2-8)	least active			
484 µM and 474 µM	50	CC(C)C[C@@H]1NC(=O)[C@H](CCC(N)=O)NC(=O)[C@@H]2CCCN2C(=O)[C@H](CO)NC(=O)[C@@H](N)CSSC[C@@H](C(=O)O)NC(=O)[C@H](CCC(N)=O)NC(=O)[C@H](Cc2ccc(O)cc2)NC1=O [Peptide 10] (H-CSPQLYQC-OH; disulfide 1-8)	intermediate cytotoxicities			
